The values that follow come from patent publication US20060051868A1, “Methods for increasing conifer somatic embryo initiation, capture, and multiplication” (priority 2001, published 2006).

A short description of the data set: Media pH during Loblolly pine embryogenic culture growth. It is filed as physicochemical. As to the method: The pH of media containing four different concentrations of MES was compared to that of a non-buffered control media during eight weeks of embryogenic culture growth. Maintenance cultures were established on treatment media using single isolated somatic embryos. Maintenance cultures were prepared and cultured essentially as described in Example 5.
The control media was #1043. (See Table 21). The treatment media consisted of #1043 supplemented with 250, 500, 1000 and 1500 mg/l MES. Media pH was adjusted to 5.7 within all treatments prior to autoclaving, pouring and solidification. Immediately after pouring the media, and thereafter at two week intervals, media pH was measured up to the eighth week of culture growth. At each sampling time, four cultures from each media-genotype treatment were destructively sampled to measure the pH of the media directly underlying the growing embryogenic tissue.

As for `O=S(=O)(O)CCN1CCOCC1` [MES, 2-(N-morpholino)-ethanesulfonic acid], the “Media pH” value is, setting by setting: (250 mg/l in media #1043, 0 weeks) 5.55; (250 mg/l in media #1043, 2 weeks) 5.43; (250 mg/l in media #1043, 4 weeks) 4.69; (250 mg/l in media #1043, 6 weeks) 4.68; (250 mg/l in media #1043, 8 weeks) 4.72; (500 mg/l in media #1043, 0 weeks) 5.63. Also, the “Media pH” value reads like this: (500 mg/l in media #1043, 2 weeks) 5.50; (500 mg/l in media #1043, 4 weeks) 4.78; (500 mg/l in media #1043, 6 weeks) 4.77; (500 mg/l in media #1043, 8 weeks) 4.54; (1000 mg/l in media #1043, 0 weeks) 5.67; (1000 mg/l in media #1043, 2 weeks) 5.57. The “Media pH” value is, setting by setting: (1000 mg/l in media #1043, 4 weeks) 5.38; (1000 mg/l in media #1043, 6 weeks) 4.70; (1000 mg/l in media #1043, 8 weeks) 4.89; (1500 mg/l in media #1043, 0 weeks) 5.67; (1500 mg/l in media #1043, 2 weeks) 5.59; (1500 mg/l in media #1043, 4 weeks) 5.59. Moreover, the “Media pH” value is, setting by setting: (1500 mg/l in media #1043, 6 weeks) 4.91; (1500 mg/l in media #1043, 8 weeks) 5.18.
